Measured values published in patent publication US20150250864A1, “ANTI-CANCER VACCINES” (Board of Regents, The University of Texas System, priority 2012, published 2015).
Entries after “also recorded” stand apart in the source; their conditions may differ.

Key:
[1] = test system: sera obtained from cancer patients; experiment: ELISA B cell epitope screening of 15-mer peptides with cancer patient sera; format: binding, human; details: single 15-mer peptides of SP8 or SP9
Description: FIG. 7. Several novel epitopes were detected in BC patients by ELISA in SP8 and SP9, including 94, 108, 91, 88, 89, and 95 from pool 9.
B cell epitopes have been screened by ELISA or flow cytometry using 4D1, 4E6, 4E11, 6H5, 6E11, 5F11mAbs or G11D10 or P 1/P2e (single chain antibodies generated from 6H5 (FIGS. 5-6), or the sera obtained from cancer patients (FIGS. 7-8). Several anti-HERV-K monoclonal antibodies were able to recognize some of these peptides.

IVS cells = experiment: IFN-γ ELISPOT with IVS cells (DC pulsed once with HERV-K protein) against MAPs, 9-mer pools or single peptides; format: cell-based, human; details: donor 449731, IVS cells, FIG. 15C
Description: FIGS. 15A-C. ELISPOT was employed to determine the production of IFN-γ in twelve 15-mer small pools. (FIG. 15A) Numbers of spots detected in multiple pools are shown for a breast cancer patient diagnosed with IDC (Acc 30) or a patient diagnosed with teratoma (Acc 32). (FIG. 15B) Numbers of spots detected in multiple pools are shown for a patient diagnosed with left breast minute foci of sugg papillary lesion (967092) or IDC (Acc 31). SP 1-12 represents small peptide pools #1-12. Pool 0 contains no peptides (as control). (FIG. 15C) T cells obtained from PBMC stimulated once with HERV-K-specific pulsed homologous B cells were reactive with individual MAPs, pools of 9-mer peptides, or single 9-mer peptides. NP: no peptide control.
IVS were obtained from two donor pairs stimulated with DC pulsed once with HERV-K protein. After 7 days (1-week stimulation), IVS cells were used for ELISPOT with 15-mer peptides (FIGS. 15A-B) or MAPs including MAP73, MAP75-76, MAP82-93, MAP 92-93, and MAP95-96 or 9 mer peptide pools (#1 to 5, #5 to 10, #1 to 10, #12 to 17, #18 to 22) or single peptides (#3, #18, and #4.11; FIG. 15C). Candidate epitopes (#4 and #11) were further identified using IVS generated from DC obtained from cancer patients stimulated with HERV-K antigen in this study.

T cells in PBMCs = experiment: IFN-γ release by ELISA from PBMC stimulated with peptides or protein; format: cell-based, human; details: stimulated PBMC, FIG. 21A
Description: FIG. 17. T cell stimulation by HERV-K peptides. Peptides (p73-76 and p18-135) or HERV-K SU fusion proteins were used to stimulate PBMC and evaluated in vitro for their ability to stimulate T cells in PBMCs from healthy subjects (ND1007083; left) and/or cancer patients (BC 243; right), based on interferon-γ(IFN-γ) release by ELISA. KLH peptide and GST protein were used as controls. Other negative controls included media only, DMSO, and PBS.
FIG. 18. T cell stimulation by HERV-K peptides. Peptides (p73-76: left; and p18-135: middle) or HERV-K SU fusion proteins (right) were used to stimulate PBMC and evaluated in vitro for their ability to stimulate T cells in PBMCs from healthy subjects and/or cancer patients (BC 243; middle), based on interferon-γ (IFN-γ) release by ELISA. OD values of interferon-γ (IFN-γ) release were compared between normal donors (ND447549, ND1001366, and ND1007083) and cancer patients (OC222, OC 210, OC212, and BC243). OC is ovarian cancer and BC is breast cancer
FIGS. 21A-C. T Cell Stimulation. 9 mer Peptides (HERVK-3, HERVK-4, HERVK-11, and HERVK-18; see Table 1), p73-76 and p18-135 (Table 1 178 and 179), or HERV-K SU fusion proteins were used to stimulate PBMC and evaluated in vitro for their ability to stimulate T cells in PBMCs from healthy subjects and/or cancer patients, based on IFN-γ and Granzyme B release by ELISA. (FIG. 21A) OD values of IFN-γ release were compared in a normal donor (ND291812). (FIG. 21B) OD values of IFN-γ release were compared between a normal donor (ND291817) and an ovarian cancer patient (OC153). (FIG. 21C) OD values of Granzyme B release were compared between a normal donor (ND291817) and an ovarian cancer patient (OC153). Each dot represents an individual clone. Negative controls measured release of effector molecules from cancer cells after treatment with supernatants obtained from PBMCs without stimulation with HERV-K peptides or protein; positive controls were stimulated with PMA/ONO.
Cancer patients were enrolled to evaluate HERV-K as a tumor associated antigen target. Patients provided written informed consent as part of an approved protocol (LAB04-0083) at MD Anderson Cancer Center prior to commencing the studies. Normal healthy donor control blood samples were obtained from Gulf Coast Regional Blood Center, Houston Tex. 40 mL of peripheral blood was obtained from each patient, and peripheral blood mononuclear cells (PBMCs) were isolated by density gradient centrifugation using Histopaque-1077 (Sigma-Aldrich; USA). HLA-A*02 expression in PBMCs obtained from cancer patients and healthy subjects was determined by flow cytometry with PE Mouse anti-human HLA-A2 mAb BB7.2 (BD Pharmingen; San Diego, Calif., USA). Mouse IgG2b was used as an isotype control. PBMCs (5×10^5 cells/well) from either healthy subjects or cancer patients were incubated with Peptide #18-135 ([…]; SEQ ID NO: 178), Peptide #73-76 ([…]; SEQ ID NO: 179) or KLH as control peptide) or proteins (HERV-K env SU protein or GST protein as control) at concentrations of 40 μg/mL in 96-well U-bottom microplates (BD; Franklin Lakes, N.J., USA) in 100 μL of T-cell medium (TCM), consisting of RPMI 1640 (Mediatech; Manassas, Va., USA), 10% human AB serum (Valley Biomedical, Winchester, USA), […] 2-mercaptoethanol, 100 IU/mL interleukin-2 (IL-2), and 0.1 mM MEM nonessential amino acid solution (Invitrogen; Grand Island, N.Y., USA). Half of the TCM was removed and replaced with fresh TCM containing peptides (20 μg/mL) on day 7. After 14 days of culture, the supernatants from cell culture media (PBMC pulsed with peptides or proteins) were harvested and tested for their ability to produce IFN-gamma or IL-2, and granzyme B release was also determined by enzyme-linked immunosorbent assay (ELISA) assay. In order to detect the secreted cytokine in this assay, high-binding plates were coated with 5 μg/ml anti-IFN-γ (Mabtech, Stockholm, Sweden) diluted in PBS buffer at 4° C. overnight. […]

[2] = test system: TIL obtained from melanoma patient; experiment: IFN-γ ELISPOT with TIL from melanoma patient; format: cell-based, human
[3] = test system: T cells from HLA A2+ normal donor; experiment: IFN-γ ELISPOT, T cells stimulated by 9-mer peptide pool-pulsed homologous B cells; format: cell-based, human; details: T cell stimulated 3 times with peptide pool #12 to 22
Description: FIGS. 12A-B. Identification of HLA-A2 T-cell specific peptides using anti-human IFN-γ ELISPOT with T cells from one HLA A2^+ normal donor. (FIG. 12A) T cells, stimulated by peptide pool-pulsed homologous B cells three (3rd T cells) or four (4th T cells) times were reactive with two pools from a HERV-K HLA A2^+9-mer peptide library (pool #1-11 and pool #12-22). NP is no peptide control. (FIG. 12B) Photographs of actual plates for FIG. 12A.
FIGS. 13A-B. Identification of HLA-A2 T cell specific epitopes using anti-human IFN-γ ELISPOT. T cells obtained from PBMC stimulated by peptide pool-pulsed homologous B cells three (3rd T cells) or four (4th T cells) times, were reactive with individual peptides. (FIG. 13A) Image of ELISPOT. (FIG. 13B) The code of peptides evaluated in ELISPOT assays.
FIGS. 14A-C. Summary of number of ELISPOTs from each individual peptide. Numbers of spots detected (pool 1-11, pool 12-22, and pool 23-33) in ELISPOTS with a single peptide are shown. NP contains no peptide (as control). (FIG. 14A) Summary of number of ELISPOTs from each individual peptide including #1, #2, #3, #5, #6, #7, #8, and #9, and peptide pool #1 to #11. (FIG. 14B) Summary of number of ELISPOTs from each individual peptide including #12, #13, #14, #15, #17, #18, #19, #20, #22 and peptide pool #12 to #22. (FIG. 14C) Summary of number of ELISPOTs from each individual peptide including #23, #24, #25, #26, #27, #28, #30, #31, #32, #33, and peptide pool #23 to #33. 4th T cells indicated the T cells had been stimulated with peptide pool 4 times and 3rd T cells indicated the T cells had been stimulated with peptide pool 3 times.
The inventor used epitope mapping to identify responses to HERV-K peptides in breast cancer patients. They chemically synthesized a HERV-K env nine amino acid (9mer) peptide library (33 HLA A2 restricted peptides) and overlapping 15mer peptide library (144 peptides). Preliminary research has identified two pools from the HERV-K env 9mer peptide library that contain potential CD8+ epitopes, using interferon gamma (IFN-γ) enzyme-linked immunosorbent spot (ELISPOT) assay with T cells from one HLA A2^+ normal donor which was stimulated with the 9mer peptide pool-pulsed homologous dendritic cells (DCs).
HLA-2+ patients were identified by flow cytometry using anti-A2 antibody. Activated B cells were cultured from PBMCs stimulated with irradiated 3T3-CD40L-expressing fibroblasts. Normal donor CD8+ T-cell lines were obtained from PBMCs stimulated with autologous activated B cells pulsed with peptide pools (peptides are in 3 pools: #1-11, #12-22, and #23-33); the stimulation was repeated for 3-4 cycles. HERV-K specific T cells generated from normal donor lines were tested for peptide reactivity using IFN-γ ELISPOT assays (FIGS. 12A-B).

**Q.** AAVAGVALHSSVQSV [15-mer 94] was tested. Which “B epitope found by ELISA using patient sera” value (“B epitope found by ELISA” below) [1] did it give?
**A.** The value was “epitopes were found”.

**Q.** For AVIMGLIAVTATAAV [15-mer 91], which “B epitope found by ELISA” value [1] is on record?
**A.** The value was “epitopes were found”.

**Q.** GVALHSSVQSVNFVN [15-mer 95] was tested. Which “B epitope found by ELISA” value [1] did it give?
**A.** Its value is “epitopes were found”.

**Q.** With ILVCLFCLL [HERVK-11] as the sequence, how does the “HERV-K specific T cell epitope (IFN-γ ELISPOT)” value (IVS cells) read?
**A.** The value was “HERV-K specific T cell epitopes”.

**Q.** What about the “IFN-γ release (OD values)” value (T cells in PBMCs) of the same sequence?
**A.** The value was “Higher IFN-γ release”.

**Q.** With KRFIFTLIAVIMGLI [15-mer 89] as the sequence, how does the “B epitope found by ELISA” value [1] read?
**A.** Its value is “epitopes were found”.

**Q.** For LILVCLFCL [HERVK-4], which “HERV-K specific T cell epitope (IFN-γ ELISPOT)” value (IVS cells) is on record?
**A.** Its value is “HERV-K specific T cell epitopes”.

**Q.** What about the “IFN-γ release (OD values)” value (T cells in PBMCs) of the same sequence?
**A.** Its value is “Higher IFN-γ release”.

**Q.** Which “B epitope found by ELISA” value [1] does the source give for LMSLEHRFQLQCDWN [15-mer 108] here?
**A.** The value was “epitopes were found; also recorded: the only active epitope in each patient's serum”.

**Q.** How did the “B epitope found by ELISA” value [1] turn out when LNRSKRFIFTLIAVI [15-mer 88] was run?
**A.** Its value is “epitopes were found”.

**Q.** SQTITCENCRLLSCI [15-mer 73] was tested. Which “recognition by TILs (IFN-γ ELISPOT)” value ([2]; TIL from a melanoma patient) did it give?
**A.** The value was “the single peptide in SP7 which was recognized by TILs”.

**Q.** And the “number of IFN-γ spots” value ([2]; TIL from melanoma patient specimens, FIG. 16A)?
**A.** The value was “large number of spots”.

**Q.** Which “IFN-γ ELISPOT spots with individual peptide” value [3] does the source give for TLIAVIMGL [HERVK-15] here?
**A.** Its value is “numerous spots”.
